Assay results from publication PMC8434109, “Synthesis and Biological Activity of a Cytostatic Inhibitor of MLLr Leukemia Targeting the DOT1L Protein” (Molecules, 2021).

Columns and labels:
recombinant hDOT1L = recombinant hDOT1L (Homo sapiens, UniProt Q8TEK3); assay: AlphaLISA DOT1L enzymatic inhibition assay on purified nucleosomes
KOPN8 cells (MLL-ENL) = assay: Cell proliferation, trypan blue counting; type: cell-based; conditions: Homo sapiens, KOPN-8, 360 h, 15-day treatment, read-out: EC50 of the proliferation inhibition
Experimental: (§1) For assessment of cell proliferation and viability in human cell lines, exponentially growing cells were placed, in triplicate, in 96-well plates at a density of 35,000 cells/well at a final volume of 100 µL. […] The viable cell number was determined every 3–4 days for up to 15 days to 21 days using trypan blue counting using Cellometer Disposable Counting Chambers for the Cellometer Mini Automated Cell Counter.

NOMO-1 cells (MLL-AF9) = assay: Cell proliferation, trypan blue counting; type: cell-based; conditions: Homo sapiens, 360 h; NOMO-1 (AF9), 15-day treatment; read-out: EC50 of the proliferation inhibition
Experimental: as §1

PRMT6 = target: T1, PRMT6 (Homo sapiens, UniProt Q96LA8); assay: HMT selectivity panel (Reaction Biology); type: biochemical; conditions: substrate GST-GAR, read-out: Enzyme % Activity (relative to DMSO controls)
T1 construct: purchased Reaction Biology
Experimental: (§2) Table S1: Selectivity of the compound on a HMT panel (by Reaction Biology, USA) and on hDNMT3Acat (as described in Ceccaldi
(§3) Enzyme % Activity (relative to DMSO
(§4) Testing Concentration 10µM
(§5) Methyltransferase: Substrate: Activity enzyme in %

G9a = target: T2, G9a (Homo sapiens, UniProt Q96KQ7); assay: HMT selectivity panel (Reaction Biology); type: biochemical; conditions: substrate Histone H3 1-21, read-out: Enzyme % Activity (relative to DMSO controls)
T2 construct: purchased Reaction Biology
T2 sequence (Q96KQ7 1-1210): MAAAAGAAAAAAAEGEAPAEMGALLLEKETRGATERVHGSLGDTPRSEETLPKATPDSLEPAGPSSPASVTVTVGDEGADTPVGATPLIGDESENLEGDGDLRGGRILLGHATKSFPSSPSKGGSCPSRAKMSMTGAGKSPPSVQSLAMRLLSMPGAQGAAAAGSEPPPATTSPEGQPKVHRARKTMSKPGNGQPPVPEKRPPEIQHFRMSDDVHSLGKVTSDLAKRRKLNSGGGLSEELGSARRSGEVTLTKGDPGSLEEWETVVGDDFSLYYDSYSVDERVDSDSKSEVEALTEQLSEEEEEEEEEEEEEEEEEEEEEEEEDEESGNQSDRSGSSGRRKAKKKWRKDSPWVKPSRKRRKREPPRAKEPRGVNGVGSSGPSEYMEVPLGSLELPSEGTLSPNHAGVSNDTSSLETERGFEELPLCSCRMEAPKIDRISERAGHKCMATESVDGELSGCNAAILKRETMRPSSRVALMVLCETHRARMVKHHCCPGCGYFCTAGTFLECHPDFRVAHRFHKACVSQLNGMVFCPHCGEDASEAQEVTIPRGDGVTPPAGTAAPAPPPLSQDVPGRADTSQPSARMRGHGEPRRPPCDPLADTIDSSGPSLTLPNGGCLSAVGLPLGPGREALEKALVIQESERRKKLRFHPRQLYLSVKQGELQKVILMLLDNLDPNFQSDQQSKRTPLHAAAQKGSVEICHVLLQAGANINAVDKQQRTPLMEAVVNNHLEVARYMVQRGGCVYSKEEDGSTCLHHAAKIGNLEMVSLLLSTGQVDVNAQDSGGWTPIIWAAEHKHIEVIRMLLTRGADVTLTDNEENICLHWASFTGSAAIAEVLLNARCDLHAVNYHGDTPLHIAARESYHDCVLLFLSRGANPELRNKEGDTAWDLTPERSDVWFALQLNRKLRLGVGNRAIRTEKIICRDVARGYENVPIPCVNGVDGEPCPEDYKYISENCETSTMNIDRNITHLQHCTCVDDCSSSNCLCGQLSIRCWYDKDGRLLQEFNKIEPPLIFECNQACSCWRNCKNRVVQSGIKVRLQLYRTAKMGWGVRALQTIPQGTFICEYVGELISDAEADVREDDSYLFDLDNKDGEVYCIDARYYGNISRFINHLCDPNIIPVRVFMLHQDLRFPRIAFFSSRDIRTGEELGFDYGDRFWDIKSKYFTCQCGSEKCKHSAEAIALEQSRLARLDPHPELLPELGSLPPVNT
Experimental: as §2, §3, §4, §5

EZH2 Complex = target: T3, EZH2 Complex (Homo sapiens, UniProt Q15910); assay: HMT selectivity panel (Reaction Biology); type: biochemical; conditions: substrate Core Histone, read-out: Enzyme % Activity (relative to DMSO controls)
T3 construct: purchased Reaction Biology
Experimental: as §2, §3, §4, §5

SMYD2 = target: T4, SMYD2 (Homo sapiens, UniProt Q9NRG4); assay: HMT selectivity panel (Reaction Biology); type: biochemical; conditions: substrate Histone H4, read-out: Enzyme % Activity (relative to DMSO controls)
T4 construct: purchased Reaction Biology
Experimental: as §2, §3, §4, §5

MOLM-13 cells (MLL-AF9) = assay: Cell proliferation, trypan blue counting; type: cell-based; conditions: Homo sapiens, 360 h; MOLM-13 (AF9), 15-day treatment; read-out: EC50 of the proliferation inhibition

Sequence of recombinant hDOT1L (Q8TEK3 1-416): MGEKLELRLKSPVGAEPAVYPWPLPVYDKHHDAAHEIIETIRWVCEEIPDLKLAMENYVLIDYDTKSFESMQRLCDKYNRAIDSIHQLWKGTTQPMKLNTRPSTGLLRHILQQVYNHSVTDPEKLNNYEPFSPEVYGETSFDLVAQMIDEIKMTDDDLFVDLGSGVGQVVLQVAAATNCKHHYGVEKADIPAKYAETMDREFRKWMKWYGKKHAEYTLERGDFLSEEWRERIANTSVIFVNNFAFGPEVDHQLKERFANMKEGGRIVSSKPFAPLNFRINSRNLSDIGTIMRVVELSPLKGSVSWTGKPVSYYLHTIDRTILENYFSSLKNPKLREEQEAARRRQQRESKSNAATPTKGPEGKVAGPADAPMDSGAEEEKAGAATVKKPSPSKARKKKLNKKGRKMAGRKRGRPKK
T4 sequence (Q9NRG4 whole entry): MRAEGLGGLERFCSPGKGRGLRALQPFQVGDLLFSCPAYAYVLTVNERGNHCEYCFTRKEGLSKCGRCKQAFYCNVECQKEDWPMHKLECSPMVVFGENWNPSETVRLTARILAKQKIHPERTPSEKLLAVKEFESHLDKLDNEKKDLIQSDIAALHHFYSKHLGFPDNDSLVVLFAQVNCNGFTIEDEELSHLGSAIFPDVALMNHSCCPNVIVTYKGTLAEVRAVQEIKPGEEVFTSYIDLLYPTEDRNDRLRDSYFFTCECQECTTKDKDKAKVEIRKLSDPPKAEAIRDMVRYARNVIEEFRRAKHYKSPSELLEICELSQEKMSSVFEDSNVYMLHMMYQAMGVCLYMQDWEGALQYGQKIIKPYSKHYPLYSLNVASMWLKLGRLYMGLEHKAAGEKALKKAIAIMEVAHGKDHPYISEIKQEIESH
T3 sequence (Q15910 2-746 limits assumed): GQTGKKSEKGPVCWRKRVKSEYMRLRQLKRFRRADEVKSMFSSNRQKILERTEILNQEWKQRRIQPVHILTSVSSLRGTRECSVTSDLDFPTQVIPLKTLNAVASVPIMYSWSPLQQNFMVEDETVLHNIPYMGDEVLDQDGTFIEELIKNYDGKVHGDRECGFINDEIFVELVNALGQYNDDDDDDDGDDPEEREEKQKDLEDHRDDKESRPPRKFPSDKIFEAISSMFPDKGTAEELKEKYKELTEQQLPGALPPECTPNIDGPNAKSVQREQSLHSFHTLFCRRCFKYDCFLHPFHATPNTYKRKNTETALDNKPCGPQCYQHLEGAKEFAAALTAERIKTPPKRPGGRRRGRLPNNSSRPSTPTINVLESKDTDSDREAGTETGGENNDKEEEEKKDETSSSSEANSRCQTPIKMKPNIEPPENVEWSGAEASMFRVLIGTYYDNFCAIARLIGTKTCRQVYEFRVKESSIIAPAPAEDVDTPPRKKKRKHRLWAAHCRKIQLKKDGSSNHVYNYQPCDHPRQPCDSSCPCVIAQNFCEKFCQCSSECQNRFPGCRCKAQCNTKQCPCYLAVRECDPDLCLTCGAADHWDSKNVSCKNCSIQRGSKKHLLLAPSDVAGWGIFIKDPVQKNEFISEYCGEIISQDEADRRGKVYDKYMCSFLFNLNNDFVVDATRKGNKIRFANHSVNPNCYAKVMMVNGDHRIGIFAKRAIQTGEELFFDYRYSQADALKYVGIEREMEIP
T3 sequence (O75530 2-441 partner limits assumed): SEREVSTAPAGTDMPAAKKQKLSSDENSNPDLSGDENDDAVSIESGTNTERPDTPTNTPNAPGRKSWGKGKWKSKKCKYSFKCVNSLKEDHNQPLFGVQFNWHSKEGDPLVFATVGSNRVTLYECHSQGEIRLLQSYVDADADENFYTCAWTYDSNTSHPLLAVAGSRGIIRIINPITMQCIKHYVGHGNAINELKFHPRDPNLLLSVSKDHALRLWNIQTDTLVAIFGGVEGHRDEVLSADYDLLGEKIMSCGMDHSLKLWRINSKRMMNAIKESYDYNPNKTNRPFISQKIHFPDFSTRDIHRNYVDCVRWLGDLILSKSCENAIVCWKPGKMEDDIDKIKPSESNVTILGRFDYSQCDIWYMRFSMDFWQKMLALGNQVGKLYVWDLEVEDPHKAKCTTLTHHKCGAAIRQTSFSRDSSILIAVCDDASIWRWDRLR
T3 sequence (Q15022 2-739 partner limits assumed): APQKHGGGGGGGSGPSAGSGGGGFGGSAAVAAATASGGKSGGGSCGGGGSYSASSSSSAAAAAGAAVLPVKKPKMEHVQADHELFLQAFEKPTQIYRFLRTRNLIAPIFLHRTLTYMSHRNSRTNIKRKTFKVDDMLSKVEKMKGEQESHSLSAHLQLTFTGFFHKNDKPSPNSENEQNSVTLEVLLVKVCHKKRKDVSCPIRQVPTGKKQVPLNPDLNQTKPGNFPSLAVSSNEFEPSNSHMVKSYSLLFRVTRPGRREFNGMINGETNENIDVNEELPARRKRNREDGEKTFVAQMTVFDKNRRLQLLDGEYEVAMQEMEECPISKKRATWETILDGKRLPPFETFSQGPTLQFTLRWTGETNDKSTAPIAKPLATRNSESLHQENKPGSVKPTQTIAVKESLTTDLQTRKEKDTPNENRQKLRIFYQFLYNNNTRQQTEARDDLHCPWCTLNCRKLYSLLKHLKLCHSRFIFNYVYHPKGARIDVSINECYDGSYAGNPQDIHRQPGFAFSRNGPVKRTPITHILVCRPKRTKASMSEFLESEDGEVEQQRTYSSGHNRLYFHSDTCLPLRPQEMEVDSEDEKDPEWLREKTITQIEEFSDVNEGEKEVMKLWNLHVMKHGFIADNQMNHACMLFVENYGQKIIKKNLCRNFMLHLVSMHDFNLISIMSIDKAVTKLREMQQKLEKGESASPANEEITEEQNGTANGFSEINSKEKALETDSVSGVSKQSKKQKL
T3 sequence (Q09028 2-425 partner limits assumed): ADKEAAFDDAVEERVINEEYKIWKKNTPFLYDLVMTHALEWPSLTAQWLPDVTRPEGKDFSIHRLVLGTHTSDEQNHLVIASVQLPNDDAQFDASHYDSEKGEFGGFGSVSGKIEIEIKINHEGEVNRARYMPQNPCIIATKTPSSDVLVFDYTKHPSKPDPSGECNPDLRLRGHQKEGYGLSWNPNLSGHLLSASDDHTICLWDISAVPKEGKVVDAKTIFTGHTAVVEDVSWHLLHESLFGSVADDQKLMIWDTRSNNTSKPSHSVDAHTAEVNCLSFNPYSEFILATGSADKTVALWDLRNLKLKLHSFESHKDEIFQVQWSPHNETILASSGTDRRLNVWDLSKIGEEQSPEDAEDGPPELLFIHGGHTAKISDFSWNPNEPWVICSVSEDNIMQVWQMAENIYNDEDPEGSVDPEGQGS
T3 sequence (Q6ZN18 whole entry partner): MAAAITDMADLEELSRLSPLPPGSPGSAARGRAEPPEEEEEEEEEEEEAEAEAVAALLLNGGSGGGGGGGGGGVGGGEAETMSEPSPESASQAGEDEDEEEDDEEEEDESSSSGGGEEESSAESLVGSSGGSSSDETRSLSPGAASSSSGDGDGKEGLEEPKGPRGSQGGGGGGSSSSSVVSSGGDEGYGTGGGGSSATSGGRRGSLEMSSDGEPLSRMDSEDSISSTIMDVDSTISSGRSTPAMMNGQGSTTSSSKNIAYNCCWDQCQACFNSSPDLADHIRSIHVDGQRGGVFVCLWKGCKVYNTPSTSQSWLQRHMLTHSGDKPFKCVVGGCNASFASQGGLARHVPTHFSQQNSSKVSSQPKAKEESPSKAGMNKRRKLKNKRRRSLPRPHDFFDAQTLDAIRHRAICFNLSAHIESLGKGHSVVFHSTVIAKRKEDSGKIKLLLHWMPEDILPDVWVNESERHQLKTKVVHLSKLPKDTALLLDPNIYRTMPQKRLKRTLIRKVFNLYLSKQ
T1 sequence (Q96LA8 whole entry): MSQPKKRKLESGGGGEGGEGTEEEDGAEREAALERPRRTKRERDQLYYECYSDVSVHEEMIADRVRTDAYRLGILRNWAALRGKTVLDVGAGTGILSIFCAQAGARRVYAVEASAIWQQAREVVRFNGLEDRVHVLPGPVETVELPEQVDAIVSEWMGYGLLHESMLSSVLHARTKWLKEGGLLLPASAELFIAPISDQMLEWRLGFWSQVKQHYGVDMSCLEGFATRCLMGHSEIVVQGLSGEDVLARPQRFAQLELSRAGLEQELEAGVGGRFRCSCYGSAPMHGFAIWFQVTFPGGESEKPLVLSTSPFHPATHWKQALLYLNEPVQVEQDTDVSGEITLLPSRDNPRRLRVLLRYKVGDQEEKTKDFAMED

IC50 (recombinant hDOT1L): 4.7 nM
remaining activity at 10 µM (PRMT6): 95 ± 1%
remaining activity at 10 µM (G9a): 97 ± 1%
remaining activity at 10 µM (EZH2 Complex): 86 ± 1%
remaining activity at 10 µM (SMYD2): 92 ± 1%
EC50 (MOLM-13 cells (MLL-AF9)): 120 ± 10 nM
Structure (SMILES): CC(C)[C@H](CCCNC(=O)Nc1ccc(C(C)(C)C)cc1)N[C@H]1C[C@@H](n2cnc3c(N)ncnc32)[C@H](O)[C@@H]1O [Dia2, 1-((S)-4-(((1S,2R,3S,4R)-4-(6-amino-9H-purin-9-yl)-2,3-dihydroxycyclopentyl)amino)-5-methylhexyl)-3-(4-(tert-butyl)phenyl)urea]
EC50 (KOPN8 cells (MLL-ENL)): 63 ± 2 nM
EC50 (NOMO-1 cells (MLL-AF9)): 660 ± 20 nM
